Measured values: publication PMC9894841, “Characterisation of a cyclic peptide that binds to the RAS binding domain of phosphoinositide 3-kinase p110α” (Scientific Reports, 2023)
“And” between values parts separate entries of the source, which are not always exact repeats. Equal entries are not always repeated. “Also recorded” adds a separate entry of the source. Residues, ends and D or L forms follow the SMILES beside them.

What was measured:
p110α (p110α/p85α) = p110α (p110α/p85α) (Homo sapiens, UniProt P42336); test: Microscale thermophoresis (MST) binding to labelled p110α/p85α; conditions: for increase in affinity for p110α over cyclo-CRVLAA: MST; for Kd: labelled protein 100 nM, 25 °C
CRAF-RBD = CRAF-RBD (Homo sapiens, UniProt P04049); test: MST binding to CRAF-RBD
Method: Measurements were performed using a NanoTemper Monolith™ NT.115 instrument (NanoTemper Technologies GmbH, München, Germany). […] Labelling levels (generally in the range 0.3–0.4 dye molecules per protein molecule) were determined using calculated extinction coefficients for the protein and ε647 = 250,000 M^−1 cm^−1 (or ε495 = 70,000 M^−1 cm^−1) for the dye concentration. In a typical experiment 20 ml aliquots of a 100 nM stock solution of labelled protein were mixed with 20 ml aliquots of a serial dilution of binding partner. These solutions were then loaded into standard treated capillaries and MST measurements were performed at 25 °C using 20–40% LED power and 40–60% IR-Laser power. The laser Laser-On time was 30 s and Laser-Off time 5 s. All measurements were performed at least five times.

GST-RBDα/KRAS = target: T1, GST-RBDα/KRAS (Homo sapiens, UniProt P42336); test: GST-RBDα/KRAS reverse two-hybrid system (RTHS), SICLOPPS screen; format: cell-based, E. coli; conditions: arabinose induced expression of the cyclic peptide
T1 construct: we created a fusion of the RBD (amino acids 133 – 314) with GST; expressed in transfected cells; host or cells: E. coli strain SNS126 (cassette integrated via pAH68)
Description: The SICLOPPS technique as previously published is based on two steps: first, building a reverse two-hybrid system (RTHS) that expresses the target protein complex in bacteria as a screening platform and second, the production of a genetically encoded cyclic peptide library[25]–[29]. […] Also, the expression of the full length p110α needs to be in association with the regulatory subunit p85α in order to achieve a stable protein dimer, which makes it a large and complex protein to express in bacteria. In a successful RTHS system, the engineered bacterial cell line should show a reduction of growth on selective media upon induction of expression of the target protein complex with increasing isopropyl β-d-1-thiogalactopyranoside (IPTG)[27]–[29]. […] We hypothesised that this could be due to a lack of solubility of RBDα, a previously described feature of the RBDs of p110 proteins. Therefore, we designed another RTHS carrying a GST fusion tag at the N-terminus of the RBDα (GST-RBDα/KRAS RTHS).
We used the GST-RBDα/KRAS RTHS to screen a CXXXXX (where X is any of the 20 canonical amino acids) SICLOPPS plasmid library of 3.2 million genetically encoded cyclic hexapeptides. The cyclic peptides contain an invariant cysteine and five other amino acids that are each equally distributed between the twenty possibilities. Thus, each SICLOPPS plasmid contains a different sequence representing a unique peptide.
Due to the lack of solubility of the p110α-RBD we created a fusion of the RBD (amino acids 133 – 314) with GST (Glutathione S-transferase) by PCR amplification, to produce a recombinant protein of GST-RBD (hereafter RBD). Both KRAS (amino acids 1–168—lacking the Hyper Variable Region) and the RBD were cloned into the pTHCP14 vector that contains two bacteriophage repressors P22 and 434, producing a cassette that consists of two fusion proteins—KRAS with 434 and RBD with P22. This cassette was then sub-cloned into the CRIM integration plasmid pAH68—for integration into E. coli strain SNS126 that contains the chimeric P22 and 434 operators. When expressed, the interaction of KRAS with the RBD brings together the P22 and the 434 repressors to form a dimer that will interact with the chimeric P22 and 434 operators—resulting in no growth on selective media.
The SICLOPPS library was generated by PCR amplification using degenerate primers encoding cyclo-CXXXXX hexapeptides (where X is any amino acid), producing around 3.2 million compounds. The SICLOPPS RTHS formation, cyclic peptide production and library screening were followed as described[24],[25],[46].

[1] = Solubility of the peptides (in words); format: physicochemical
H1792 cells = test: Western blot of phospho-AKT / phospho-ERK in H1792 cells; format: cell-based, human; conditions: RPMI 1640 10% FCS, 2, 10 and 50 µM (also 4, 20 and 100 µM), 4 h
Method: We treated the human lung cancer cell line H1792, growing at steady-state in Roswell Park Memorial Institute (RPMI) 1640 media with 10% Foetal Calf Serum (FCS), with the seven cyclic peptides at three different concentrations (2, 10 and 50 µM) for 4 h. After treatment we measured the effect of the peptides on the phosphorylation levels of AKT (pAKT-Ser473), a key downstream effector of p110α activity. […] In contrast, the phosphorylation levels of ERK (p-ERK), which is a downstream effector of the RAS/RAF/MEK/ERK pathway and is independent of p110α activity, were not affected.
The next day, 1 ml of medium was removed and the cells were treated with different peptide concentrations for 4 h. All peptides were dissolved in 25 mM Tris pH8, 100 mM NaCl and 1 mM TCEP. Cells were then harvested and lysed for SDS-PAGE and western blot analysis. Anti-calnexin antibody was obtained from Abcam. Antibodies directed against phospho-T202/Y204-ERK, ERK, phospho-S473-AKT and AKT were obtained from Cell Signaling. After western blotting, calnexin, AKT and phospho-AKT signals were quantified using ImageJ and statistical tests were done using Prism software.

T1 sequence (P42336 133-314): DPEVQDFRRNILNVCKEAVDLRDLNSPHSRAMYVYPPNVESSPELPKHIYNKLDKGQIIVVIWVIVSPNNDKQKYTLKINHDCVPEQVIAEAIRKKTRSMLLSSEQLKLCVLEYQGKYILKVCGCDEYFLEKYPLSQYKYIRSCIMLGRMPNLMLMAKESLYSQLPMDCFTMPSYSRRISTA
Sequence of p110α (p110α/p85α) (P42336 whole entry, species assumed): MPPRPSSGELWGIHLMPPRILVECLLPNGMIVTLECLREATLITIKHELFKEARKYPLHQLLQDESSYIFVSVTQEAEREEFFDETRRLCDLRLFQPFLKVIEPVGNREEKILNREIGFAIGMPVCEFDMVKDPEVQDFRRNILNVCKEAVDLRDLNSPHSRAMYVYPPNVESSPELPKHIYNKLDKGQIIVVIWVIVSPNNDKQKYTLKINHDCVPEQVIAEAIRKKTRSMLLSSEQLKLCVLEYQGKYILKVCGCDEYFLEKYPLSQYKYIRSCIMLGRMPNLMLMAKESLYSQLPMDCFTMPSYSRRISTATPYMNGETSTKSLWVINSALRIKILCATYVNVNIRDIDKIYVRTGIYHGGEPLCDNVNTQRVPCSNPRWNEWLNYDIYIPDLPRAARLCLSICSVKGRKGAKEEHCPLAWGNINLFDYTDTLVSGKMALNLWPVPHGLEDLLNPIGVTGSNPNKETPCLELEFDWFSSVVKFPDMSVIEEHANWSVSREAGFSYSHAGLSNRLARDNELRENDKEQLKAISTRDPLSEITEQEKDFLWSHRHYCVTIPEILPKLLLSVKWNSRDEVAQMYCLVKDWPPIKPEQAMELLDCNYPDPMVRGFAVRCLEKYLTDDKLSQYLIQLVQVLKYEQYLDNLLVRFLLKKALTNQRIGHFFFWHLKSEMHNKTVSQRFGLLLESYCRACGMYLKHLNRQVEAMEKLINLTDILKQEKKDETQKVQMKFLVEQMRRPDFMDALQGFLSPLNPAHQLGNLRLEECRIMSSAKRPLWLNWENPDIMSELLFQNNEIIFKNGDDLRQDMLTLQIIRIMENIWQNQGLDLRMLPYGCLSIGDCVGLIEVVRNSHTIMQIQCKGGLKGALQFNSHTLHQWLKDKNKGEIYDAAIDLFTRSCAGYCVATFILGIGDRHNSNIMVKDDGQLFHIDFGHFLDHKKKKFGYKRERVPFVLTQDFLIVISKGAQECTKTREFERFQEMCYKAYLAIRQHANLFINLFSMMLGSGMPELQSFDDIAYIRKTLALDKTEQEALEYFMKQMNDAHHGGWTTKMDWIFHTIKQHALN
Sequence of p110α (p110α/p85α) (P27986 whole entry partner, species assumed): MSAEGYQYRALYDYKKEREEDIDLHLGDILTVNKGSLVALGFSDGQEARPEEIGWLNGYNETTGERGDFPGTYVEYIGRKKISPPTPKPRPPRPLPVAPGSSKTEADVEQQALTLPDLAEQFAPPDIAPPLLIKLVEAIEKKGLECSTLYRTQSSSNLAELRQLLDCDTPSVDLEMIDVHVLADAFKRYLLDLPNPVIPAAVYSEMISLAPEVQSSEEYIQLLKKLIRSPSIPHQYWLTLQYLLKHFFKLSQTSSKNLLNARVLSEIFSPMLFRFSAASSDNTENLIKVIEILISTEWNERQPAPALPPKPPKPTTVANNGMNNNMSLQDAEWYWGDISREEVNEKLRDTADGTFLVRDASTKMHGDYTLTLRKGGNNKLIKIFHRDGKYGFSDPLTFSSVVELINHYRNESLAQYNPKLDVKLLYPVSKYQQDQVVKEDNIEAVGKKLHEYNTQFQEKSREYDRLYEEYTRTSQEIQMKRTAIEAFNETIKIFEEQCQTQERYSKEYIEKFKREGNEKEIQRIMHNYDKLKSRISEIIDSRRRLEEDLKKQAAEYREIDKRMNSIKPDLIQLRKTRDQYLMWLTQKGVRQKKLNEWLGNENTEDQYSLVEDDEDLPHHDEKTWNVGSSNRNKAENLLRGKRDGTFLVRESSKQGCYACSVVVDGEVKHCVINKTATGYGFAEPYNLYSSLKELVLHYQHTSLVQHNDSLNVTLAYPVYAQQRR
Sequence of CRAF-RBD (P04049 56-131 limits assumed): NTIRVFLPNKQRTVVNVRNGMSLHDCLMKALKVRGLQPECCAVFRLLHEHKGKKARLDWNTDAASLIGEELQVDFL

With CC(C)C[C@@H]1NC(=O)[C@H](C(C)C)NC(=O)[C@H](CCCNC(=N)N)NC(=O)[C@H](CS)NC(=O)[C@H](CC(=O)O)NC(=O)[C@H](C)NC1=O [cyclo-CRVLAD, Cyclo-CRVLAD] the “increase in affinity for p110α over cyclo-CRVLAA” value (p110α (p110α/p85α)) was 30 fold, the Kd (p110α (p110α/p85α)) was 11.8 ± 1.75 µM and the “binding to CRAF-RBD in words, MST” value (CRAF-RBD) was “does not interact; also recorded: did not produce a positive signal of interaction”.

In the case of CC[C@H](C)[C@@H]1NC(=O)[C@H](C(C)C)NC(=O)[C@H](CS)NC(=O)[C@H](C(C)C)NC(=O)[C@H](C(C)C)NC(=O)[C@H](CC(C)C)NC1=O [cyclo-CVILVV, Cyclo--CVILVV] (cyclo(CVILVV)), the “regrowth of the GST-RBDα/KRAS RTHS on selective media with IPTG” value (shortened to “regrowth … on selective media with IPTG”) (GST-RBDα/KRAS) is reported as “regrowth”.

In the case of CC(C)C[C@@H]1NC(=O)[C@H](C(C)C)NC(=O)[C@H](CCCNC(=N)N)NC(=O)[C@H](CS)NC(=O)[C@H](C)NC(=O)[C@H](CC(=O)O)NC1=O [CRVLDA, Cyclo-CRVLDA] (cyclo(CRVLDA)), the Kd (p110α (p110α/p85α)) is reported as ≥ 476 µM.

For Cyclo-CAWCGR, the “regrowth … on selective media with IPTG” value (GST-RBDα/KRAS) was “regrowth”.

In the case of CC(C)C[C@@H]1NC(=O)[C@H](CCCCN)NC(=O)[C@H](CS)NC(=O)[C@H](CC(C)C)NC(=O)[C@H](C(C)C)NC(=O)[C@H](C(C)C)NC1=O [cyclo-CKLVVL, Cyclo-CKLVVL] (cyclo(CKLVVL)), the “regrowth … on selective media with IPTG” value (GST-RBDα/KRAS) is reported as “regrowth”.

With CC(C)C[C@@H]1NC(=O)[C@H](C(C)C)NC(=O)[C@H](CCCNC(=N)N)NC(=O)[C@H](CS)NC(=O)[C@H](C)NC(=O)[C@H](CCC(=O)O)NC1=O [CRVLEA, Cyclo-CRVLEA] (cyclo(CRVLEA)) the Kd (p110α (p110α/p85α)) was ≥ 1210 µM.

For CC(C)C[C@@H]1NC(=O)[C@H](Cc2ccc(O)cc2)NC(=O)[C@H](CC(C)C)NC(=O)[C@H](CC(C)C)NC(=O)[C@H](Cc2c[nH]c3ccccc23)NC(=O)[C@H](CS)NC1=O [cyclo-CWLLYL, Cyclo-CWLLYL] (cyclo(CWLLYL)), the “regrowth … on selective media with IPTG” value (GST-RBDα/KRAS) was “regrowth”.

In the case of CC(C)C[C@@H]1NC(=O)[C@H](CS)NC(=O)[C@H](Cc2ccc(O)cc2)NC(=O)[C@H](Cc2c[nH]c3ccccc23)NC(=O)[C@H](Cc2c[nH]c3ccccc23)NC(=O)[C@H](C(C)C)NC1=O [cyclo-CLVWWY, Cyclo-CLVWWY] (cyclo(CLVWWY)), the “regrowth … on selective media with IPTG” value (GST-RBDα/KRAS) is reported as “regrowth”.

For CSCC[C@@H]1NC(=O)[C@H](CS)NC(=O)[C@H](CCCNC(=N)N)NC(=O)CNC(=O)CNC(=O)[C@H](CO)NC1=O [cyclo-CMSGGR, Cyclo-CMSGGR] (cyclo(CMSGGR)), the “regrowth … on selective media with IPTG” value (GST-RBDα/KRAS) was “regrowth”.

In the case of CC(C)C[C@@H]1NC(=O)[C@H](C(C)C)NC(=O)[C@H](CCCNC(=N)N)NC(=O)[C@H](CS)NC(=O)[C@H](C)NC(=O)[C@H](CCCNC(=N)N)NC1=O [CRVLRA, Cyclo-CRVLRA] (cyclo(CRVLRA)), the Kd (p110α (p110α/p85α)) is reported as ≥ 140 µM.

In the case of CC(C)C[C@@H]1NC(=O)[C@H](C(C)C)NC(=O)[C@H](CCCNC(=N)N)NC(=O)[C@H](CS)NC(=O)[C@H](C)NC(=O)[C@H](C)NC1=O [cyclo-CRVLAA, Cyclo-CRVLAA], the “binding to p110α in words, MST” value (p110α (p110α/p85α)) is reported as “weak binding; also recorded: interacted weakly”, the Kd (p110α (p110α/p85α)) is reported as ≥ 360 µM and ~360 µM and the solubility in words [1] is reported as “most soluble of these”.

With CC(C)C[C@@H]1NC(=O)[C@H](C(C)C)NC(=O)[C@H](CCCNC(=N)N)NC(=O)[C@H](CS)NC(=O)[C@H](CCCNC(=N)N)NC(=O)[C@H]([C@@H](C)O)NC1=O [cyclo-CRVLTR, Cyclo-CRVLTR] (cyclo(CRVLTR)) the “effect on phospho-AKT (pAKT-Ser473) levels” value (H1792 cells) was “mild effect”.

With CC(C)C[C@@H]1NC(=O)[C@H](C(C)C)NC(=O)[C@H](CCCNC(=N)N)NC(=O)[C@H](CS)NC(=O)[C@H](CCCNC(=N)N)NC(=O)[C@H](C)NC1=O [cyclo-CRVLAR, Cyclo-CRVLAR] (cyclo(ARCRVL)) the “increase in affinity for p110α over cyclo-CRVLAA” value (p110α (p110α/p85α)) was “tenfold”.

In the case of CC[C@H](C)[C@@H]1NC(=O)[C@H](CCCNC(=N)N)NC(=O)[C@H](CS)NC(=O)[C@H]([C@@H](C)CC)NC(=O)[C@H](C(C)C)NC(=O)[C@H](C(C)C)NC1=O [cyclo-CRIVVI, Cyclo-CRIVVI] (cyclo(CRIVVI)), the “regrowth … on selective media with IPTG” value (GST-RBDα/KRAS) is reported as “regrowth”.

With CC(C)C[C@@H]1NC(=O)[C@H](CS)NC(=O)[C@H](Cc2c[nH]c3ccccc23)NC(=O)[C@H](Cc2c[nH]c3ccccc23)NC(=O)[C@H](Cc2ccc(O)cc2)NC(=O)[C@H](Cc2c[nH]c3ccccc23)NC1=O [cyclo-CLWYWW, Cyclo-CLWYWW] (cyclo(CLWYWW)) the “regrowth … on selective media with IPTG” value (GST-RBDα/KRAS) was “regrowth”.

For CC(C)C[C@@H]1NC(=O)[C@H](C(C)C)NC(=O)[C@H](CCCNC(=N)N)NC(=O)[C@H](CS)NC(=O)[C@H](CCC(=O)O)NC(=O)[C@H](C)NC1=O [CRVLAE, Cyclo-CRVLAE] (cyclo(CRVLAE)), the Kd (p110α (p110α/p85α)) was ≥ 817 µM.
